With `O=C(Nc1cc(Oc2cccnc2)cc(-c2ccccn2)c1)c1ccc(F)cc1` [Example 2, 4-Fluoro-N-[3-pyridin-2-yl-5-(pyridin-3-yloxy)-phenyl]-benzamide] as the compound, how does the melting point read?
Its melting point is 160 to 162 °C.
